These results are taken from article PMC12067442 (Journal of Medicinal Chemistry, 2025).

The target of data set [1] is T1, norepinephrine transporter (NET, SLC6A2) (Homo sapiens, UniProt P23975).
T1 construct: purchased Eurofins Cerep SA
The experiment in a line: radioligand displacement assay on NET (Eurofins Cerep SA). It is filed as binding. The conditions noted are these: for inhibition at 10 µM: read-out: % Inhibition @ 10 µM on NET; for inhibition at 0.01 µM: read-out: % Inhibition @ 10 nM on NET; for inhibition at 0.1 µM: read-out: % Inhibition @ 100 nM on NET.

Data set [2] has as its target T2, dopamine transporter (DAT, SLC6A3) (Homo sapiens, UniProt Q01959).
T2 construct: purchased Eurofins Cerep SA
Description: radioligand displacement assay on DAT (Eurofins Cerep SA). Format: binding. To be noted: for inhibition at 10 µM: read-out: % Inhibition @ 10 µM on DAT; for inhibition at 0.1 µM: read-out: % Inhibition @ 100 nM on DAT.

Data set [3] deals with T3, serotonine (5-HT) transporter (SERT, SLC6A4) (Homo sapiens, UniProt P31645).
T3 construct: purchased Eurofins Cerep SA
The experiment in a line: radioligand displacement assay on SERT (Eurofins Cerep SA). Format: binding. To be noted: for inhibition at 10 µM: read-out: % Inhibition @ 10 µM on SERT; for inhibition at 0.1 µM: read-out: % Inhibition @ 100 nM on SERT.

For another data set, the target named is T4, Histaminic H2 (Homo sapiens, UniProt P25021).
T4 construct: purchased Eurofins Cerep SA
The experiment in a line: in vitro polypharmacology panel: Histaminic H2. Format: binding.

In a further data set the target is T5, Serotonin 5-HT 2A (Homo sapiens, UniProt P28223).
T5 construct: Eurofins Cerep SA (France), contract assay
Description: in vitro polypharmacology panel: Serotonin 5-HT 2A. It is filed as binding.

The target in another data set is T6, Serotonin 5-HT 2B (Homo sapiens, UniProt P41595).
T6 construct: Eurofins Cerep SA (France), contract assay
Description: in vitro polypharmacology panel: Serotonin 5-HT 2B. Format: binding.

The target of a further data set is T7, Serotonin 5-HT 1A (Homo sapiens, UniProt P08908).
T7 construct: purchased Eurofins Cerep SA
The experiment in a line: in vitro polypharmacology panel: Serotonin 5-HT 1A. Format: binding.

Another data set deals with T8, hERG (Homo sapiens, UniProt Q12809).
T8 construct: purchased Eurofins Cerep SA
Description: in vitro polypharmacology panel: hERG. It is filed as binding.

The next data set deals with T9, σ-1R (Homo sapiens, UniProt Q99720).
T9 construct: purchased Eurofins Cerep SA
The experiment in a line: radioligand displacement assay on σ-1R (Eurofins Cerep SA). It is filed as binding. To be noted: estimated from duplicate dilution series; read-out: IC50 (nM) sigma-1R.

The target in a further data set is T10, Histaminic H3 (Homo sapiens, UniProt Q9Y5N1).
T10 construct: purchased Eurofins Cerep SA
The experiment in a line: in vitro polypharmacology panel: Histaminic H3. Format: binding.

A short description of another data set: in vivo. The conditions noted are these: both, C57BL/6JRJ, mouse, 5 mg/kg.
The next data set addresses T11, HEK-Gly-RA1 (Homo sapiens, UniProt P23415).
T11 construct: host or cells: HEK
The experiment in a line: in vitro polypharmacology panel: HEK-Gly-RA1. Format: binding.

The target of another data set is T12, Cannabinoid (Homo sapiens, UniProt P21554).
T12 construct: purchased Eurofins Cerep SA
The experiment in a line: in vitro polypharmacology panel: Cannabinoid. It is filed as binding.

Another data set deals with T13, Serotonin 5-HT 3 (Homo sapiens, UniProt P46098).
T13 construct: Eurofins Cerep SA (France), contract assay
The experiment in a line: in vitro polypharmacology panel: Serotonin 5-HT 3. It is filed as binding.

The next data set concerns the target T14, Cannabinoid 2 (Homo sapiens, UniProt P34972).
T14 construct: purchased Eurofins Cerep SA
Description: in vitro polypharmacology panel: Cannabinoid 2. Format: binding.

The target of the next data set is T15, Dopamine D3 (Homo sapiens, UniProt P35462).
T15 construct: purchased Eurofins Cerep SA
The experiment in a line: in vitro polypharmacology panel: Dopamine D3. Format: binding.

The next data set deals with T16, ACHe (Homo sapiens, UniProt P22303).
T16 construct: purchased Eurofins Cerep SA
The experiment in a line: in vitro polypharmacology panel: ACHe. Format: binding.

A further data set concerns the target T17, Dopamine D2s (Homo sapiens, UniProt P14416).
T17 construct: purchased Eurofins Cerep SA
Description: in vitro polypharmacology panel: Dopamine D2s. It is filed as binding.

The next data set addresses T18, Histaminic H1 (Homo sapiens, UniProt P35367).
T18 construct: purchased Eurofins Cerep SA
The experiment in a line: in vitro polypharmacology panel: Histaminic H1. Format: binding.

The target in the next data set is T19, Serotonin 5-HT 1B (Homo sapiens, UniProt P28222).
T19 construct: purchased Eurofins Cerep SA
The experiment in a line: in vitro polypharmacology panel: Serotonin 5-HT 1B. It is filed as binding.

In a further data set the target is T20, Muscarinic M2 (Homo sapiens, UniProt P08172).
T20 construct: purchased Eurofins Cerep SA
Description: in vitro polypharmacology panel: Muscarinic M2. Format: binding.

The next data set has as its target T21, Dopamine D2L (Homo sapiens, UniProt P14416).
T21 construct: purchased Eurofins Cerep SA
The experiment in a line: in vitro polypharmacology panel: Dopamine D2L. Format: binding.

The target of a further data set is T22, Muscarinic M1 (Homo sapiens, UniProt P11229).
T22 construct: purchased Eurofins Cerep SA
The experiment in a line: in vitro polypharmacology panel: Muscarinic M1. It is filed as binding.

Another data set has as its target T23, Dopamine D1 (Homo sapiens, UniProt P21728).
T23 construct: purchased Eurofins Cerep SA
The experiment in a line: in vitro polypharmacology panel: Dopamine D1. Format: binding.

A further data set has as its system mice. Description: observation of mice after acute i.p. administration. It is filed as in vivo, C57Bl6/J mice. The conditions noted are these: 1.0 or 10 mg/kg i.p., male mice. From the text:
Fresh bedding and environmental enrichment were provided weekly.

Data set [4] relates to dopamine (DA) uptake in PC12 cells. The experiment in a line: cells. To be noted: Rattus norvegicus, PC-12, 2 h, read-out: IC50 (nM) - DA Uptake Inhibition.
Description: The system was operated in positive mode. […] MS peaks were quantified using a calibration curve.

Values joined by “and” are separate entries in the source; they are usually repeats but may differ in a detail not shown here. Equal values may be shown once.

T2 sequence (Q01959 whole entry): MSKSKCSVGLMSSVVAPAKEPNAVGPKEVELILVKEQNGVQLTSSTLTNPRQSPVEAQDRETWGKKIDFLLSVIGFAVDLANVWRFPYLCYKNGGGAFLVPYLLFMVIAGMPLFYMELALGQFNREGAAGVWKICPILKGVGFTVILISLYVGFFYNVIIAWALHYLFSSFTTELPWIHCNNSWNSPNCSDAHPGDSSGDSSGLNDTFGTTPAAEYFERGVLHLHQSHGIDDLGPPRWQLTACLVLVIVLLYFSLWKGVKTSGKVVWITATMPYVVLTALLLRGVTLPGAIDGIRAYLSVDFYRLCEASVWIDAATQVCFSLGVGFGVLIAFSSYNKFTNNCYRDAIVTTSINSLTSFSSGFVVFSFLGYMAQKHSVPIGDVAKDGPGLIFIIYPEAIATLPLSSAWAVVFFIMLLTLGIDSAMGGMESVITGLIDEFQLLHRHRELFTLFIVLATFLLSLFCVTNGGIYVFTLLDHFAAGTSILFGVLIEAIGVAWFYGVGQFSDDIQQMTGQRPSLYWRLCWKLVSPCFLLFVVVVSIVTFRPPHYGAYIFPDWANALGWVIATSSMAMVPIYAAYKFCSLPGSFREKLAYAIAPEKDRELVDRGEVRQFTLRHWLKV
T1 sequence (P23975 whole entry): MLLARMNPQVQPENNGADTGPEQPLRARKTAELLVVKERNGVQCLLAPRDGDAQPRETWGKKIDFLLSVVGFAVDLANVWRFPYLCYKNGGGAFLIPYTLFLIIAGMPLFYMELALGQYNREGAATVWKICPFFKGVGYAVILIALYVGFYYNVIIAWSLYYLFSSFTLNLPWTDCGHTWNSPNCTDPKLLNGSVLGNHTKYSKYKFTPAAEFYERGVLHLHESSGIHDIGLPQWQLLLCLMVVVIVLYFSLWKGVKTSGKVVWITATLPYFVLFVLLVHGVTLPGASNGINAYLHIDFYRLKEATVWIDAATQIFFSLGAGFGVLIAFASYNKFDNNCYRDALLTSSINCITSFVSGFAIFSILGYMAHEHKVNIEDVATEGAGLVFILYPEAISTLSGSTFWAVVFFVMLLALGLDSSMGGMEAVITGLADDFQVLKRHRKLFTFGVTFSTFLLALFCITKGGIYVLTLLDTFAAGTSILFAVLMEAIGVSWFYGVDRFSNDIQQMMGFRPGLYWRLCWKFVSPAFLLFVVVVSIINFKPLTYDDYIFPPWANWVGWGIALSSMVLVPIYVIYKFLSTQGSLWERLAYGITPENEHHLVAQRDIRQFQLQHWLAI
T3 sequence (P31645 whole entry): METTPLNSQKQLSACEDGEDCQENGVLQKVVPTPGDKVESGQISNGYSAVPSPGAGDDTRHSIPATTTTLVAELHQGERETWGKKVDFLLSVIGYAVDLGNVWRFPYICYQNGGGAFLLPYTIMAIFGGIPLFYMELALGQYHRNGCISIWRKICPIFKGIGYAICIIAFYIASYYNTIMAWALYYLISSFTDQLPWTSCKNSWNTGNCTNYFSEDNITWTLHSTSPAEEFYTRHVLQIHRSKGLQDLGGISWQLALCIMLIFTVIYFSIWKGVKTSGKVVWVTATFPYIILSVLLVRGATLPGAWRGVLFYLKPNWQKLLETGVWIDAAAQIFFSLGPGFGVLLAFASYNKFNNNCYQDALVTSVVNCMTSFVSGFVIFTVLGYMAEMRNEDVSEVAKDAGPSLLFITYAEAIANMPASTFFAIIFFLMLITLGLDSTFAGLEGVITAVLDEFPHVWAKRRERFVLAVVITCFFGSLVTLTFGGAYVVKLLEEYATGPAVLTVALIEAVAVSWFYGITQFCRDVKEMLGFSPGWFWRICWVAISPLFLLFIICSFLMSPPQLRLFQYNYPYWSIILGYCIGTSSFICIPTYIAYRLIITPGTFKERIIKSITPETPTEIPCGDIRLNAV
T9 sequence (Q99720 whole entry, species assumed): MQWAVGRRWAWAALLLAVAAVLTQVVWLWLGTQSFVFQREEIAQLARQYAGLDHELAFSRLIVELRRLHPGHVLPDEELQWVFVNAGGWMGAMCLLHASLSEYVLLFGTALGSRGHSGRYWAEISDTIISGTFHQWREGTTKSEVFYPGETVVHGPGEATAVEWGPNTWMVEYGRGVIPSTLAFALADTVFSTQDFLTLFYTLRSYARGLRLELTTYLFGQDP
T18 sequence (P35367 whole entry): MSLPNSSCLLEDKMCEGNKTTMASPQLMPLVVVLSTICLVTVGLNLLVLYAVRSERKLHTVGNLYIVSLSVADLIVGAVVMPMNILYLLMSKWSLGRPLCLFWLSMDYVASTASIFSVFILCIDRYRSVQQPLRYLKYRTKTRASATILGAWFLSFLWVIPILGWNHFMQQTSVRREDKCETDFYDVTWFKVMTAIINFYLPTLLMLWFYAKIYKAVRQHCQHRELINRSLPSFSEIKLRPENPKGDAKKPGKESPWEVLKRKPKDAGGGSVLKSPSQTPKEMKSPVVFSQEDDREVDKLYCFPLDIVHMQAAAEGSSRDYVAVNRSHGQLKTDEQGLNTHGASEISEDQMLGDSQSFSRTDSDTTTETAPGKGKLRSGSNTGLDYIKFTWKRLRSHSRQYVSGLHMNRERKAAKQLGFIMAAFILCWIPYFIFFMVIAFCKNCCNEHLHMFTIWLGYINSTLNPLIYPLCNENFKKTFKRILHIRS
T23 sequence (P21728 whole entry): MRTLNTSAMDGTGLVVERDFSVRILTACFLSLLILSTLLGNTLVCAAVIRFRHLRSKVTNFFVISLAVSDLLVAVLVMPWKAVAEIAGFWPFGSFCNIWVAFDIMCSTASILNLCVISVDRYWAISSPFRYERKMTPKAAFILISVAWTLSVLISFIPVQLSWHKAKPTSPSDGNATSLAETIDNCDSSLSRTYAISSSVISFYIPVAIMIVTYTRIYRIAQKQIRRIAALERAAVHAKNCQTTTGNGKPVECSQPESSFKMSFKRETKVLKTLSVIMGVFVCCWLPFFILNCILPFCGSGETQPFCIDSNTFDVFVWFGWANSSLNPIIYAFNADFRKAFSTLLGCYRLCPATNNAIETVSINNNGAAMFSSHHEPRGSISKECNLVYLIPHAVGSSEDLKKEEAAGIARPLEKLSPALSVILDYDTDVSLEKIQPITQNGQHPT
T5 sequence (P28223 whole entry): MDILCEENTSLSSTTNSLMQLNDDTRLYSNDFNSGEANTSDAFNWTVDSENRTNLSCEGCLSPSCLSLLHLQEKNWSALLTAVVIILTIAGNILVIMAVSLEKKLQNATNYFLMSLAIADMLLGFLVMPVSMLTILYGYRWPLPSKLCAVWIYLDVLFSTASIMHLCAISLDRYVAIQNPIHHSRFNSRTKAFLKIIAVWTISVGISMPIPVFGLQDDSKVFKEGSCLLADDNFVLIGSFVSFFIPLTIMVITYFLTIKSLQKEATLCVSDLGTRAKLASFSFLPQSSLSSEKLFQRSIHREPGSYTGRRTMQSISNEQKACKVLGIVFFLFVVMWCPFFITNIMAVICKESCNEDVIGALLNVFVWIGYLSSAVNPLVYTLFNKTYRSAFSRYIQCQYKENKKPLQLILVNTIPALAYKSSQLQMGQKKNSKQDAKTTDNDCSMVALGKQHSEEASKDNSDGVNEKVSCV
T15 sequence (P35462 whole entry): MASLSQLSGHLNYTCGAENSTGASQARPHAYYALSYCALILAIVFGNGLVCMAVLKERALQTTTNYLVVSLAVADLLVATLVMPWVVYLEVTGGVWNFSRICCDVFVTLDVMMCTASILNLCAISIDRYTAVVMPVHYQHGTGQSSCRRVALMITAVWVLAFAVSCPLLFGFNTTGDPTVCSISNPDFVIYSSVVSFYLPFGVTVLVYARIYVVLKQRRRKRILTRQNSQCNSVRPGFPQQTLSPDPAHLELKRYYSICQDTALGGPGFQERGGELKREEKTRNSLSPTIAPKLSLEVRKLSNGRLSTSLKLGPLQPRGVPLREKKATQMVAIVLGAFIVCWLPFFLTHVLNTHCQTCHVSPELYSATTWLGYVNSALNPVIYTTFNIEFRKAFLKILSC
T19 sequence (P28222 whole entry): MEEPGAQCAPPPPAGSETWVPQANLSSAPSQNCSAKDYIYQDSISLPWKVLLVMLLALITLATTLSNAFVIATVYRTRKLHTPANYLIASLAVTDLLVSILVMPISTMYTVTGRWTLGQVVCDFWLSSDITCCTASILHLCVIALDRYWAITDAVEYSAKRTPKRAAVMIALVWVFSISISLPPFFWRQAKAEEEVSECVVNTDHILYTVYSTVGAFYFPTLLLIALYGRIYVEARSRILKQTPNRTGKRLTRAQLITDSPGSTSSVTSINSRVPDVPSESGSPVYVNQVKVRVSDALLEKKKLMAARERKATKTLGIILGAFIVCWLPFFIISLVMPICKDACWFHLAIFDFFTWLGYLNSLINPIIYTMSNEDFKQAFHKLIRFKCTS
T16 sequence (P22303 32-614): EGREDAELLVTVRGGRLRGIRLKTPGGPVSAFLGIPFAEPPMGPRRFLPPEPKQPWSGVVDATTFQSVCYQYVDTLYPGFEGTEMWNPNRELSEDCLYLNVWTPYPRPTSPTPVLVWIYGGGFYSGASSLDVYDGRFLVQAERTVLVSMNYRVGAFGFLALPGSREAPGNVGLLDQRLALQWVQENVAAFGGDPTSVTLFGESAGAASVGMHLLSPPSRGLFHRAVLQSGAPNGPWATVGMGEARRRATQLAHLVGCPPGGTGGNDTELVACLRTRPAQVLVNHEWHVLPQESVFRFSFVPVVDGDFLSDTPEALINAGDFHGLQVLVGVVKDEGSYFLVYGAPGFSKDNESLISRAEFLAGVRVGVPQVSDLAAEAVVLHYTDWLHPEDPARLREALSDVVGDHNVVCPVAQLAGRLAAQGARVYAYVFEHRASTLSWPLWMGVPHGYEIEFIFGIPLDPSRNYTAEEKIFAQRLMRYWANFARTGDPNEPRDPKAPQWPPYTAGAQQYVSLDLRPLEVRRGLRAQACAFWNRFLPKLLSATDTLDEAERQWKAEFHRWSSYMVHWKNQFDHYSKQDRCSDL

For `C1CC[C@H]2NCC[C@H]2NC1` (relative stereo) [2a, Decahydropyrrolo[3,2-b]azepine], the inhibition at 10 µM in data set [1] worked out at 1.7%; in data set [2], 6.4%; in data set [3], 7.6%.
On to `C1CC[C@@H]2NCC[C@H]2NC1` (relative stereo) [2b, Decahydropyrrolo[3,2-b]azepine], for which the inhibition at 10 µM was 3% in data set [1], 13.6% in data set [2] and -1.9% in data set [3].
Take `C1CC[C@@H]2NCCC[C@H]2NC1` (relative stereo) [3b]: the inhibition at 10 µM in data set [1] is 8.8%; in [2], -5.2%; in data set [3] it was 11.8%.
Consider `c1ccc(CN2CC[C@H]3NCCCC[C@H]32)cc1` (relative stereo) [17a, 1-Benzyldecahydropyrrolo[3,2-b]azepine], for which the results for the inhibition at 10 µM in [1], in data set [2] and in [3] were 21.7%, 78.3% and 21.4%, respectively.
Take `c1ccc(CN2CC[C@H]3NCCCC[C@@H]32)cc1` (relative stereo) [17b, 1-Benzyldecahydropyrrolo[3,2-b]azepine]: the inhibition at 10 µM was 10.8% in data set [1], 89% in data set [2] and 13.7% in data set [3].
The matching figures for `c1ccc(CN2CCC[C@H]3NCCCC[C@H]32)cc1` (relative stereo) [27a, 1-Benzyldecahydro-1H-pyrido[3,2-b]azepine]: 13.9%, 85.5% and 87.7%.
For the compound `c1ccc(CN2CCC[C@H]3NCCCC[C@@H]32)cc1` (relative stereo) [27b, 1-Benzyldecahydro-1H-pyrido[3,2-b]azepine], the inhibition at 10 µM in data set [1] was -5.1%; in data set [2], 19.4%; in data set [3], 6.9%.
As for `c1ccc(CN2CCCC[C@@H]3NCC[C@H]32)cc1` [1b, 4-Benzyldecahydropyrrolo[3,2-b]azepine], the inhibition at 10 µM in data set [2] turned out to be 81.8%; in [3], 68.6%.
With `C1CCC2NCCCCC2NC1` (stereo not shown) [4b, Dodecahydroazepino[3,2-b]azepine], the inhibition at 10 µM in [1] was -7.1%; in [2] it was -0.5%; in data set [3], -1%.
`c1ccc(CN2CCCC[C@H]3NCCC[C@H]32)cc1` [40a, 5-Benzyldecahydro-1H-pyrido[3,2-b]azepine]: the inhibition at 10 µM in [1] came out at 88.7%; in [2], 94.4%; in [3], 91%.
The corresponding values for `c1ccc(CN2CCCC[C@@H]3NCCC[C@H]32)cc1` [40b, 5-Benzyldecahydro-1H-pyrido[3,2-b]azepine] are 60%, 41% and 71%.
The matching figures for `c1ccc(CN2CCCC[C@@H]3NCCCC[C@H]32)cc1` [44b, 6-Benzyldodecahydroazepino[3,2-b]azepine]: 31.5%, 74.9% and 59.4%.
Turning to `c1ccc(CN2CCCC[C@H]3NCC[C@H]32)cc1` [(R,R)-1a, (3aR,8aR)-4-Benzyldecahydropyrrolo[3,2-b]azepine], on Histaminic H2, the “Histaminic H2” value is -2. Also, the “Serotonin 5-HT 2A (5 µM)” value at Serotonin 5-HT 2A is given as -0.9. The “Serotonin 5-HT 2B (5 µM)” value at Serotonin 5-HT 2B is on record as 29.7. Besides, the “Serotonin 5-HT 1A (5 µM)” value on Serotonin 5-HT 1A is 18.9. On hERG, the “hERG (5 µM)” value amounted to 12.2. Besides, the IC50 on σ-1R is ~110 nM and 110 nM; in [2] it was 230 ± 12 nM; in data set [3], 250 ± 32 nM. Moreover, the “Histaminic H3 (5 µM)” value at Histaminic H3 amounted to 8.6. Further, the AUC was 799 ng·h/mL in the data set “in vivo” (iv) and 36.6 ng·h/mL in “in vivo” (po). The Tmax in the data set “in vivo” (po) is 15 min. In addition, the “HEK-Gly-RA1 (5 µM)” value on HEK-Gly-RA1 worked out at 4. For the same compound, the “Cannabinoid (5 µM)” value on Cannabinoid was -13.4. Also, the inhibition at 0.1 µM in data set [2] came to 29.8%; in data set [3], 26.3%. Further, the values for the inhibition at 10 µM in data set [2] and in data set [3] were 97.2% and 95.9%, respectively. Further, at Serotonin 5-HT 3, the “Serotonin 5-HT 3 (5 µM)” value is recorded as 5.2. Also, the “Cannabinoid 2 (5 µM)” value on Cannabinoid 2 is given as 11.9. In addition, on Dopamine D3, the “Dopamine D3 (5 µM)” value amounted to 6.1. The “ACHe (5 µM)” value at ACHe was found to be 3.8. The “Dopamine D2s (5 µM)” value at Dopamine D2s turned out to be 11.7. The “Histaminic H1 (5 µM)” value at Histaminic H1 is given as -4.3. In addition, the “Serotonin 5-HT 1B (5 µM)” value on Serotonin 5-HT 1B was -19.8. The “Muscarinic M2 (5 µM)” value on Muscarinic M2 worked out at 28.5. In addition, the “Dopamine D2L (5 µM)” value on Dopamine D2L is reported as -0.3. Besides, the “Muscarinic M1 (5 µM)” value on Muscarinic M1 was 78.7. Also, the “Dopamine D1 (5 µM)” value on Dopamine D1 is 3.5. Moreover, the “phenotype upon acute treatment” value in the data set with mice (already after 40 min) is listed as “pronounced sedative or lethargic phenotype”. The “signs of acute toxicity (piloerection, hunched posture, convulsions, gastrointestinal distress)” value in the data set on mice was “no signs of acute toxicity”.
Turning to `Clc1ccc(CN2CCCC[C@H]3NCC[C@H]32)cc1` [(R,R)-58, (3aR,8aR)-4-(4-Chlorobenzyl)decahydropyrrolo[3,2-b]azepine], in [1], the inhibition at 0.01 µM was -15.2%. Further, the inhibition at 0.1 µM came out at 6.4% in data set [1], 12% in data set [2] and 78.2% in [3].
The corresponding values for `Clc1cccc(CN2CCCC[C@H]3NCC[C@H]32)c1` [(R,R)-59, (3aR,8aR)-4-(3-chlorobenzyl)decahydropyrrolo[3,2-b]azepine] are 55.9%, 97.1%, 74.9% and 98%.
The corresponding values for `Clc1ccccc1CN1CCCC[C@H]2NCC[C@H]21` [(R,R)-60, (3aR,8aR)-4-(2-Chlorobenzyl)decahydropyrrolo[3,2-b]azepine] are 24%, 83.4%, 37.5% and 69.1%.
The corresponding values for `Brc1cccc(CN2CCCC[C@H]3NCC[C@H]32)c1` [(R,R)-61, (3aR,8aR)-4-(3-Bromobenzyl)decahydropyrrolo[3,2-b]azepine] are 56.7%, 91.4%, 58% and 96.9%.
As for `c1ccc(CN2CCCC[C@@H]3NCC[C@@H]32)cc1` [(S,S)-1a, (3aS,8aS)-4-Benzyldecahydropyrrolo[3,2-b]azepine], the inhibition at 10 µM in data set [2] stood at 94.4%; in data set [3], 91%.
Take `Clc1ccc2c(c1)C(N1CCNCC1)=Nc1ccccc1O2` [Amox, amoxapine]: the IC50 in data set [4] worked out at 11 ± 2.3 nM.
The same measure, in the same setting: under `COc1ccc(C(CN(C)C)C2(O)CCCCC2)cc1` (stereo not shown) [Venla, venlafaxine] stands 1340 ± 128 nM.
In the case of “(3aR,8aR)-4-(2,3-Dichlorobenzyl)decahydropyrrolo[3,2-b]azepine [(R,R)-62]”, in data set [1], the “% Inhibition @ 10 nM on NET” value was found to be 74.8% and the “% Inhibition @ 100 nM on NET” value is 96.4%. In data set [2], the “% Inhibition @ 100 nM on DAT” value amounted to 15.4%. Also, in data set [3], the “% Inhibition @ 100 nM on SERT” value is listed as 97.8%.
The corresponding values for “(3aR,8aR)-4-(3,5-Dichlorobenzyl)decahydropyrrolo[3,2-b]azepine [(R,R)-63]” are 63.4%, 93.7%, 89% and 99.7%.
